Reference: patent publication US10920265B2, “Compounds and methods for detection of enzymes that remove methyl succinyl groups from epsilon-amino lysine moieties” (Enzo Life Sciences, Inc., priority 2011, dated 2021)
*: point of attachment. AMC = Cc1cc(=O)oc2cc(N*)ccc12

Legend:
SIRT5 = target: T1, SIRT5 (Homo sapiens, UniProt Q9NXA8); settings: high and uncertain; maximum substrate concentration of 5 mM; read-out: Km estimate; cited from earlier work
T1 sequence (Q9NXA8 37-310): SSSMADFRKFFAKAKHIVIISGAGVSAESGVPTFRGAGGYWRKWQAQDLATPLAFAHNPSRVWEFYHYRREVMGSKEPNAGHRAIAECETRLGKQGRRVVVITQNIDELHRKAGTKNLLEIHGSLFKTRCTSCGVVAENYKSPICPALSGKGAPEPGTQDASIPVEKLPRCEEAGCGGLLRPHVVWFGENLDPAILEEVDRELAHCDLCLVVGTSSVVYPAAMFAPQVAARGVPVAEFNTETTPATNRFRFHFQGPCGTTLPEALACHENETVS

[1] = target: T2, bovine pancreatic trypsin (Bos taurus, UniProt P00760); assay: Trypsin release of AMC from lysyl-AMC compounds; assay type: biochemical; settings: 1 μM compound, trypsin 2 mg/ml, room temperature
T2 construct: purchased ENZO Life Sciences BML-KI105 or BML-KI176; host or cells: bovine pancreas
T2 sequence (P00760 24-246): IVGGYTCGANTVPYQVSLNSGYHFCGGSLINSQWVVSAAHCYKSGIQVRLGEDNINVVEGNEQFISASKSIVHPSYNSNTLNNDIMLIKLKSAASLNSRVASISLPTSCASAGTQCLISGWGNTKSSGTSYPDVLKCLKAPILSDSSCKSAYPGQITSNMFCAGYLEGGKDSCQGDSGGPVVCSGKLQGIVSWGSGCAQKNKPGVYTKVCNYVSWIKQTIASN
Description: FIG. 2 is a graph showing that trypsin treatment releases fluorescent AMC from Ac-Lys-AMC but not Ac-Lys(Succinyl)-AMC. Samples (100 μl) of 1 μM Ac-Lys-AMC and 1 μM Ac-Lys(Succinyl)-AMC in a buffered solution (50 mM Tris/HCl, pH 8.0, 137 mM NaCl, 2.7 mM KCl, 1 mM MgCl2) were treated with bovine pancreatic trypsin (2 mg/ml) for the indicated times at room temperature. Samples were in the wells of a 96-well, ½-area white microplate and fluorescence was measured at 1 min. intervals at the excitation and emission wavelengths for free AMC (Excitation: 360 nm; Emission: 460 nm) in a Synergy 2 microplate reading fluorimeter (BioTek), Gain 40. The data points at 0 min. represent the fluorescence of equivalent 1 μM Ac-Lys(Succ.)-AMC and 1 μM Ac-Lys-AMC samples in the absence of trypsin.
As noted in the Background of the Invention section above, the protease trypsin catalyzes the hydrolytic cleavage of amide bonds on the carboxyl side of unmodified lysine residues. Hydrolytic cleavage of lysyl amide bonds with AMC or rhodamine 110 (dye components of Compounds 1 and 2, respectively) releases the free amino forms of the dyes. This elicits an upward shift of the dye's fluorescence emission peak wavelength (bathochromic shift), for example to 460 nm for AMC or 530 nm for rhodamine 110. If succinylation of the ε-amino function of the lysine moieties in compounds such as 1 and 2 renders the amide bond between the carbonyl of lysine and the amino of dye groups such as AMC or rhodamine resistant to trypsin cleavage then, upon desuccinylation, the lysine/dye amide bond would become cleavable by trypsin. Note that removal of a single succinyl group from 2, followed by cleavage of the desuccinylated lysine would yield a compound with a single free amino function, Ac-K(Succ.)-R110. Monoamides of rhodamine 110 also have increased fluorescence emission at 530 nm relative to 2, although they are less fluorescent than rhodamine 110 itself (Liu et al., 1999). Thus, monitoring the fluorescence at the peak wavelength of the amino form of the dye would allow the desuccinylation reaction to be quantified. A schematic for such an assay is depicted for Compound 1 and SIRT5 in FIG. 1. Trypsin treatment (2 mg/ml) elicits an immediate increase in the fluorescence of a solution of Ac-Lys-AMC (Compound 6—FIG. 1) at the excitation and emission wavelengths of free AMC (Ex. 360 nm; Em. 460 nm), with maximum fluorescence achieved in 2 min. or less and ˜⅔ of that maximum occurring in 1 min. (FIG. 2).

Molecule	Km (SIRT5)	Trypsin cleavage / change in fluorescence [1]	Trypsin cleavage / change in fluorescence ([1]; listed as Ac-Lys(Succ.)-AMC)
Ac-Arg-His-Lys-Lys(ε-acetyl)-AMC (Ac-RHKK(Ac)-{AMC}; SMILES CC(=O)NCCCC[C@H](NC(=O)[C@H](CCCCN)NC(=O)[C@H](Cc1c[nH]cn1)NC(=O)[C@H](CCCNC(=N)N)NC(C)=O)C(=O)Nc1ccc2c(C)cc(=O)oc2c1) [Ac-RHKK(Ac)-AMC, p53 peptide fluorogenic deacetylase substrate, Cat. # BML-KI177, reference compound]	8.9 mM		
CC(=O)N[C@@H](CCCCNC(=O)CCC(=O)O)C(=O)Nc1ccc2c(C)cc(=O)oc2c1 [Compound 1, N—(N^α-acetyl-L-Lysine(N^ε-succinyl))-AMC]		complete resistance to the trypsin cleavage	no change in fluorescence
